Results published in the supplement of paper PMC10627819.

Experiments:
[1] = tested on: S. pneumoniae D39V; test: fitness (endpoint OD595 vs no drug) (fraction); higher = more growth
Method in brief: (§1)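 In 384-well plates at 37 °C, cultures began at OD595 0.01 in 30 µl, with 55 µl used for S. pneumoniae. OD595 readings every 30 min for 14 h were corrected by the first reading. Fitness divides the stationary-phase transition optical density by the robust mean of no-drug control wells. The result is capped at 1.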

[2] = tested on: B. subtilis 168; test: as above
Method in brief: as §1

[3] = tested on: S. pneumoniae D39V; test: Bliss interaction score (quartile over a dose matrix) (fitness difference); higher = more antagonism (negative = synergy)
Method in brief: (§2)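 The Bliss score subtracts expected fitness, the product of the single-drug fitness values, from observed fitness. Fitness is plate-normalised OD595 at entry into stationary phase, relative to the robust no-drug mean and capped at 1, with single-drug fitness inferred from combinations. Summaries are quartiles over technical, biological and donor/recipient replicates.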

[4] = tested on: B. subtilis 168; test: as above
Method in brief: as §2

[5] = tested on: S. aureus Newman; test: as above
Method in brief: as §2

[6] = tested on: S. aureus DSM 20231; test: as above
Method in brief: as §2
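Wherever Bliss interaction score (quartile over a dose matrix) is given: first quartile when negative (synergy) and third quartile when positive (antagonism).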

CO/N=C(\C(=O)N[C@@H]1C(=O)N2C(C(=O)O)=C(COC(C)=O)CS[C@H]12)c1csc(N)n1 [Cefotaxime] + CCC(C)C1C(=O)NC(=C)C(=O)NC(C(=O)NC(CSCC(C(=O)N1)NC(=O)/C(=C/C)/NC(=O)C(C(C)CC)N)C(=O)NC2C(SCC(NC(=O)CNC(=O)C3CCCN3C2=O)C(=O)NC(CCCCN)C(=O)NC4C(SCC(NC(=O)CNC(=O)C(NC(=O)C(NC(=O)C(NC(=O)CNC4=O)C)CC(C)C)CCSC)C(=O)NC(CC(=O)N)C(=O)NC(CCSC)C(=O)NC(CCCCN)C(=O)NC5C(SCC6C(=O)NC(C(=O)NC(CSC(C(C(=O)N6)NC(=O)C(NC5=O)C)C)C(=O)NC(CO)C(=O)NC(C(C)CC)C(=O)NC(CC7=CN=CN7)C(=O)NC(C(C)C)C(=O)NC(=C)C(=O)NC(CCCCN)C(=O)O)CC8=CN=CN8)C)C)C)CC(C)C [Nisin]
fitness, [1], main component drawn
Conditions	partner 0.4275 µg/mL	partner 0.855 µg/mL	partner 1.6 µg/mL	partner 1.71 µg/mL	partner 3.2 µg/mL	partner 6.4 µg/mL
first compound 0.0018 µg/mL	0.995	≥ 1	0.0249	0.0807	0.0291	0.0188
first compound 0.0035 µg/mL	0.896	0.936	0.0152	0.0712	0.0408	0.0145
first compound 0.007 µg/mL	0.835	0.577	0.0188	0.0886	0.0158	0.0145

[2], one replicate, main component drawn
Conditions	fitness
first compound 0.00775 µg/mL, partner 0.5 µg/mL	0.825
first compound 0.00775 µg/mL, partner 1 µg/mL	0.74
first compound 0.00775 µg/mL, partner 2 µg/mL	0.508
first compound 0.0155 µg/mL, partner 0.5 µg/mL	0.704
first compound 0.0155 µg/mL, partner 1 µg/mL	0.605
first compound 0.0155 µg/mL, partner 2 µg/mL	0.434
first compound 0.031 µg/mL, partner 0.5 µg/mL	0.513
first compound 0.031 µg/mL, partner 1 µg/mL	0.432
first compound 0.031 µg/mL, partner 2 µg/mL	0.251
first compound 0.0625 µg/mL, partner 1.25 µg/mL	0.397
first compound 0.0625 µg/mL, partner 1.6 µg/mL	0.18
first compound 0.0625 µg/mL, partner 2.5 µg/mL	0.0546
first compound 0.0625 µg/mL, partner 3.2 µg/mL	0.0399
first compound 0.0625 µg/mL, partner 5 µg/mL	0.0497
first compound 0.0625 µg/mL, partner 6.4 µg/mL	0.0827
first compound 0.125 µg/mL, partner 1.25 µg/mL	0.176
first compound 0.125 µg/mL, partner 1.6 µg/mL	0.0847
first compound 0.125 µg/mL, partner 2.5 µg/mL	0.0355
first compound 0.125 µg/mL, partner 3.2 µg/mL	0.0507
first compound 0.125 µg/mL, partner 5 µg/mL	0.0352
first compound 0.125 µg/mL, partner 6.4 µg/mL	0.0748
first compound 0.25 µg/mL, partner 1.25 µg/mL	0.109
first compound 0.25 µg/mL, partner 1.6 µg/mL	0.0456
first compound 0.25 µg/mL, partner 2.5 µg/mL	0.0476
first compound 0.25 µg/mL, partner 3.2 µg/mL	0.0432
first compound 0.25 µg/mL, partner 5 µg/mL	0.0316
first compound 0.25 µg/mL, partner 6.4 µg/mL	0.0433
first compound 0.5 µg/mL, partner 0.5 µg/mL	0.105
first compound 0.5 µg/mL, partner 1 µg/mL	0.0334
first compound 0.5 µg/mL, partner 2 µg/mL	0.0461
first compound 0.5 µg/mL, partner 4 µg/mL	0.0435
first compound 0.5 µg/mL, partner 8 µg/mL	0.0411
first compound 0.5 µg/mL, partner 16 µg/mL	0.025
first compound 1 µg/mL, partner 0.5 µg/mL	0.0988
first compound 1 µg/mL, partner 1 µg/mL	0.0354
first compound 1 µg/mL, partner 2 µg/mL	0.0395
first compound 1 µg/mL, partner 4 µg/mL	0.0388
first compound 1 µg/mL, partner 8 µg/mL	0.0243
first compound 1 µg/mL, partner 16 µg/mL	0.0126
first compound 2 µg/mL, partner 0.5 µg/mL	0.0708
first compound 2 µg/mL, partner 1 µg/mL	0.0361
first compound 2 µg/mL, partner 2 µg/mL	0.0552
first compound 2 µg/mL, partner 4 µg/mL	0.0578
first compound 2 µg/mL, partner 8 µg/mL	0.0592
first compound 2 µg/mL, partner 16 µg/mL	0.0351

main component drawn
Conditions	Bliss interaction score
[3]	-0.051
[4]	-0.0392
[5]	-0.0293
[6]	-0.199

C[C@H]1c2cccc(O)c2C(=O)C2=C(O)[C@]3(O)C(=O)C(C(N)=O)=C(O)[C@@H](N(C)C)[C@@H]3[C@@H](O)[C@@H]21 [Doxycycline] + C[n+]1ccc(-c2cc[n+](C)cc2)cc1 [Paraquat]
fitness, [1], one replicate
Conditions	partner 1.5 µg/mL	partner 3 µg/mL	partner 6 µg/mL
first compound 0.003875 µg/mL	≥ 1	≥ 1	≥ 1
first compound 0.00775 µg/mL	≥ 1	0.962	0.986

Conditions	fitness
[1], first compound 0.0155 µg/mL, partner 1.5 µg/mL	0.979
[1], first compound 0.0155 µg/mL, partner 3 µg/mL	0.975
[1], first compound 0.0155 µg/mL, partner 6 µg/mL	0.978
[1], first compound 0.031 µg/mL, partner 1.5 µg/mL	0.923
[1], first compound 0.031 µg/mL, partner 3 µg/mL	0.877
[1], first compound 0.031 µg/mL, partner 6 µg/mL	0.898
[1], first compound 0.062 µg/mL, partner 1.5 µg/mL	0.845
[1], first compound 0.062 µg/mL, partner 3 µg/mL	0.841
[1], first compound 0.062 µg/mL, partner 6 µg/mL	0.806
[2], first compound 0.02 µg/mL, partner 1.25 µg/mL	0.905
[2], first compound 0.02 µg/mL, partner 2.5 µg/mL	0.86
[2], first compound 0.02 µg/mL, partner 5 µg/mL	0.885
[2], first compound 0.04 µg/mL, partner 1.25 µg/mL	0.828
[2], first compound 0.04 µg/mL, partner 2.5 µg/mL	0.839
[2], first compound 0.04 µg/mL, partner 5 µg/mL	0.772
[2], first compound 0.08 µg/mL, partner 1.25 µg/mL	0.568

Conditions	Bliss interaction score
[3]	0.036
[4]	0.0932
[5]	-0.019
[6]	0.0382

C[C@H]1c2cccc(O)c2C(=O)C2=C(O)[C@]3(O)C(=O)C(C(N)=O)=C(O)[C@@H](N(C)C)[C@@H]3[C@@H](O)[C@@H]21 [Doxycycline] + Cc1cc(NS(=O)(=O)c2ccc(N)cc2)no1 [Sulfamethoxazol]
one replicate
Conditions	fitness
[1], first compound 0.003875 µg/mL, partner 1 µg/mL	≥ 1
[1], first compound 0.003875 µg/mL, partner 2 µg/mL	≥ 1
[1], first compound 0.003875 µg/mL, partner 4 µg/mL	≥ 1
[1], first compound 0.00775 µg/mL, partner 1 µg/mL	0.961
[1], first compound 0.00775 µg/mL, partner 2 µg/mL	0.967
[1], first compound 0.00775 µg/mL, partner 4 µg/mL	0.963
[2], first compound 0.02 µg/mL, partner 0.5 µg/mL	0.829
[2], first compound 0.04 µg/mL, partner 0.5 µg/mL	0.72
[2], first compound 0.08 µg/mL, partner 0.5 µg/mL	0.456

fitness
Conditions	first compound 0.0155 µg/mL	first compound 0.02 µg/mL	first compound 0.031 µg/mL	first compound 0.04 µg/mL	first compound 0.062 µg/mL	first compound 0.08 µg/mL
[1], partner 1 µg/mL	0.929	–	0.848	–	0.755	–
[1], partner 2 µg/mL	0.939	–	0.859	–	0.779	–
[1], partner 4 µg/mL	0.897	–	0.81	–	0.77	–
[2], partner 1 µg/mL	–	0.856	–	0.718	–	0.485
[2], partner 2 µg/mL	–	0.818	–	0.702	–	0.424
[2], partner 4 µg/mL	–	0.876	–	0.76	–	0.528

Conditions	Bliss interaction score
[3]	-0.0349
[4]	-0.0451
[5]	-0.0242
[6]	-0.0457
